# Assay results reported in US8920851B2, “Treatment of neurodegenerative diseases” (Velacor Therapeutics Pty Ltd, priority 2006, dated 2014).
# “Also recorded” adds a separate entry of the source.
# Columns and labels:
# [1] = molecular target: T1, human PP2A A-C heterodimer (Homo sapiens, UniProt P67775); type: biochemical
# T1 construct: purified PP2A A-C dimer purified from human red blood cells; purchased Upstate 14-111 (lot #28002); host or cells: human red blood cells (native purification)
# T1 sequence (P67775 whole entry): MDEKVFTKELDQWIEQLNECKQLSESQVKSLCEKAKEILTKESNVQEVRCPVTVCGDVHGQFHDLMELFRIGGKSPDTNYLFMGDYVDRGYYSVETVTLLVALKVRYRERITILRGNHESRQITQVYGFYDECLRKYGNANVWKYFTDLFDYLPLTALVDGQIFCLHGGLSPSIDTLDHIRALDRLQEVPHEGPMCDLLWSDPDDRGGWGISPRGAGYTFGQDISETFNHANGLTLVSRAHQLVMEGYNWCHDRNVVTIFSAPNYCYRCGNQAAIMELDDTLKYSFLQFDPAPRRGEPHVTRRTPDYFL
# T1 sequence (P30153 2-589 partner limits assumed): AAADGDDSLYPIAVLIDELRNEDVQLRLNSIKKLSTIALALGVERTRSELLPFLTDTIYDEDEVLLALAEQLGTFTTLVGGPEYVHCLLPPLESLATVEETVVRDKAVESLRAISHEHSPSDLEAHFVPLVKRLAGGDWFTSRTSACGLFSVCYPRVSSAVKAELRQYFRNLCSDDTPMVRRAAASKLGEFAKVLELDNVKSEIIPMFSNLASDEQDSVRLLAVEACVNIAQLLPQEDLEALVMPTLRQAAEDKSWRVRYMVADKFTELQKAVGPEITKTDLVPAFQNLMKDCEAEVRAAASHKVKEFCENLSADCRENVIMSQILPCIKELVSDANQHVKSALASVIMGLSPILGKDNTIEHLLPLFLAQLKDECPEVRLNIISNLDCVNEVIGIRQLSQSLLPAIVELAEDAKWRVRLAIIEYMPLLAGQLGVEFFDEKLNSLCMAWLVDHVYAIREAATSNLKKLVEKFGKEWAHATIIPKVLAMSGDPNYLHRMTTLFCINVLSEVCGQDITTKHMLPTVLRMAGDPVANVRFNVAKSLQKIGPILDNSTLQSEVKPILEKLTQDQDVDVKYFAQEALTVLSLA
# Method: In initial assays a chemical substrate of phosphatase enzymatic action, para-nitrophennylphosphate (pNPP) was used, which following hydrolysis of the phosphate moiety generates para-nitrophenol, an intensely yellow chromogen which is soluble under alkaline conditions. […] Absorbance of each sample was measured in duplicate at 405 nm with 590 nm as a reference. PP2A activity was calculated using the following equation: activity=(sample vol in liters)×A405/1.78×104M^−1 cm^−1 (extinction coefficient)×0.25 cm×15 minutes×0.05 U enzyme Data is presented as mean relative phosphatase activity ±SEM from at least three independent experiments.
# Para-nitrophennylphosphate (PNPP) is a chemical substrate of phosphatase enzymes, which following hydrolysis of the phosphate moiety generates para-nitrophenol, an intensely yellow chromogen, soluble under alkaline conditions. In assays measuring relative phosphatase activity, 0.05 U of purified PP2A was mixed with 5 μl of 40 mM NiCl2 and 5 μl of BSA solution (5 mg/ml) in a microcentrifuge tube. Various treatments were added as indicated, and the volume adjusted to 80 μl with pNPP assay buffer. Samples were pre-incubated at 37° C. for 15 min. pNPP substrate was freshly prepared before each assay by dissolving 1.5 mg/ml pNPP in 50 mM Tris-HCl, pH 7.0. To start the phosphatase reaction, 120 μl of pNPP substrate was added, and samples incubated for a further 15 min at 37° C. Absorbance of each sample was measured in duplicate at 405 nm with 590 nm as a reference. PP2A activity was calculated using the following equation: activity=(Sample volume in liters)×A405/1.78×10^4M^−1cm^−1 (Extinction coefficient)×0.25 cm×15 min×0.05 U enzyme.
# PHF-Tau = conditions: 100 μM, 3 hours
# Method: In Vitro: 2×10^5 SY5Y or BE2M17 cells were plated to each well in a Falcon 6-well plate, either over coated or uncoated surfaces, and were allowed to attached overnight at 5% CO2/37° C. in complete growth medium (as described above). […] Cells were cultured over Falcon 6-well plates with surfaces coated either with 0.1% gelatin (Sigma, St Louis, Mo., USA), matrigel (cat #354234, BD, NSW, Australia) or 0.5 μg/ml fibronectin (Sigma, St Louis, Mo., USA).
# Lysates preparation and Immunoblotting: Cells were washed twice in cold PBS and were lysed in 150 μl of cold RIPA buffer (containing 10% glycerol, 20 mM Tris, 137 mM NaCl, 0.1% SDS, 0.05% IGEPAL, 1% Triton X-100, 2 mM EDTA, 10% NaV, 2% NaF and 4× protease inhibitor), similarly, brain tissues were homogenised in dry ice using mortar and pestle, and lysed in 150 μl RIPA buffer. Samples were incubated on ice for 30 minutes, followed by centrifugation at 13000 rpm/ 10 minutes/ 4° C. Supernantant was collected and protein estimation was calculated for each sample by using BCA reagent (Sigma). Equal amounts of protein were loaded into each lane of a 10% SDS-polyacrylamide gel. The proteins were transferred onto PVDF (Millipore) membranes and were blocked with 5% skim milk blotto for 2 hours. After blocking the membrane, primary antibodies: either anti-human PHF-Tau (AT100 at 1:200, AT180 at 1:1000, and AT270 at 1:2500) or anti-human Tau (HT-7 at 1:1000) were incubated overnight at 4° C. in 5% skim milk blotto. Prior to secondary antibody incubation, membranes were rinsed 3× followed by 3×5 minutes washed in Tris-Buffered Saline with 0.01% Tween at room temperature. Followed by 1 hour incubation of secondary antibody polyclonal goat anti-mouse (Dako, Denmark) coupled to horse radish peroxidase (HRP) at 1:10000 dilutions in 5% skim milk blotto/room temperature. Membranes were washed as described above and were detected by using Amersham ECL western blotting detection reagent (Amersham Bioscience, Buckinghamshire, UK). Membranes were stripped using 2% SDS/β-Mercaptoethanol stripping buffer and reprobed for tubulin (Promega) to confirm protein loading.
# rabbit PP1 = conditions: 0.05 U PP1, 500 μM phospho-threonine peptide, 15 min at 37° C., 50 μM sodium selenate
# Method: 1 mg of synthetic phosphopeptides K-R-pT-I-R-R (Upstate #12-219) and R-R-A-pS-V-A (Upstate #12-220) were dissolved in 1.10-1.285 ml of dH2O to prepare a 1 mM solution, then aliquoted and stored at −20° C. until use. 0.01-0.05 U of purified PP2A A-C dimer purified from human red blood cells, or 0.05 U of rabbit PP1 purified from skeletal muscle was mixed with 500 μM of phosphopeptide and incubated in the presence of various treatments as indicated at 37° C. on a heating block for 15 min. Each reaction was made up to a total volume of 25 μl with pNPP buffer (50 mM Tris-HCl, pH 7.0, 100 μM CaCl2). The enzyme reaction was terminated by adding 100 μl of malachite green solution (0.034% malachite green in 10 mM ammonium molybdate, 1 N HCl, 3.4% ethanol, 0.01% Tween-20). Malachite green forms a stable green complex in the presence of molybdate and orthophosphate, allowing the amount of inorganic phosphate present to be measured. Absorbance was read in duplicate for each sample at 590 nm.
# [2] = molecular target: T2, purified human PP2A A-C dimer (Homo sapiens, UniProt P67775); assay: Free sulfhydryl groups in purified PP2A (Ellman's assay); type: biochemical; conditions: 15 min at 37° C.
# T2 construct: purified PP2A A-C dimer purified from human red blood cells; purchased Upstate 14-111 (lot #28002); host or cells: human red blood cells (native purification)
# T2 sequence (P67775 whole entry): as the sequence (P67775 whole entry) above
# T2 sequence (P30153 2-589 partner limits assumed): as the sequence (P30153 2-589 partner limits assumed) above
# Excerpt: Inactivating reversible oxidation of protein phosphatases involves the modification of a critical cysteine residue within the catalytic domain, ultimately leading to the formation of either intramolecular disulphide or sulphenyl-amide bonds. […] Ellman's reagent (5,5′-Dithio-bis(2-nitrobenzoic acid), DTNB) rapidly forms a disulphide bond with free sulfhydryl groups with the release of chromogenic thiolate ions. […] The quantity of free sulfhydryl groups present within the phosphatase was then determined by the addition of Ellman's reagent and subsequent measurement of absorbance at 412 nm (FIG. 5C).
# The change in free sulfhydryl groups in purified PP2A following various treatments was determined using Ellman's Reagent. To 0.01 U of PP2A was added to 37.5 μl of dilution buffer (30 mM Tris-HCl, 3 mM EDTA, pH 8.2), 12.5 μl DTNB reagent (Ellman's reagent) and 200 μl of methanol. Samples were incubated for 5 min at RT, and then extinction measured in duplicate for each at 412 nm.
# [3] = BE2M17 cells on fibronectin, plastic (uncoated) and matrigel
smiles,measurement,setting,value
O=[Se](=O)(O)O [sodium selenate],"PP2A phosphatase activity, pNPP as substrate",[1]; 5 mM of each selenium compound,clear boost in phosphatase activity
same,PP2A phosphatase activity (pNPP),"[1]; 0.05 U PP2A dimer, 30 min at 37° C., sodium selenate 5 mM, okadaic acid 500 nM",nearly tripled
same,"PHF-Tau signal, clone AT100 (68 kDa)",PHF-Tau; BE2M17 cells on fibronectin and matrigel,PHF-Tau signal appeared to be reduced
same,"Tau expression, clone HT-7 (68, 64, 57 kDa)",PHF-Tau; BE2M17 cells on fibronectin,appeared to reduce Tau expression
same,"PHF-Tau signal, clone AT180 (71 and 67 kDa)",PHF-Tau; [3],weaker PHF-Tau signal
same,"PHF-Tau signal, clone AT270 (66 and 63 kDa)",PHF-Tau; [3],weaker PHF-Tau signal
same,"PHF-Tau signal, clone AT270, cells on matrigel",PHF-Tau; BE2M17 cells on matrigel,only a slight difference between selenate treated and non-treated cells
same,"anti-Tau signal, clone HT-7 (60 kDa)",PHF-Tau; SY5Y cells on fibronectin,weaker signal for anti-Tau
same,"PHF-Tau signal, clone AT270 (70 kDa)",PHF-Tau; SY5Y cells on gelatin and fibronectin,weaker PHF-Tau signal
same,phosphatase activity of PP1,rabbit PP1,did not affect the phosphatase activity of PP1
same,number of free sulfhydryl groups in PP2A,"[2]; 0.01 U PP2A, 10 mM of each agent",has no effect
same,hydrogen peroxide mediated modification of PP2A sulfhydryl groups in the presence of sodium selenate,[2]; sodium selenate 10 mM and hydrogen peroxide 10 mM,did not protect PP2A from hydrogen peroxide mediated modification of sulfhydryl groups; also recorded: significantly more efficient in the presence of sodium selenate
